Values of other authors as cited in patent US10874768B2, “Drug eluting medical device” (priority 2017, dated 2020).

Settings: human, 3 patients, 180 mg/m^2 infusion over 3 hours

Cmax: 5.23 µM
Structure (SMILES): CC(=O)O[C@H]1C(=O)[C@@]2(C)[C@H]([C@H](OC(=O)c3ccccc3)[C@]3(O)C[C@H](OC(=O)[C@H](O)[C@@H](NC(=O)c4ccccc4)c4ccccc4)C(C)=C1C3(C)C)[C@]1(OC(C)=O)CO[C@@H]1C[C@@H]2O [paclitaxel]
